Measured values: US20250152567A1, “COMPOUNDS FOR USE IN THE TREATMENT OF DYSTROPHINOPATHIES” (SOM INNOVATION BIOTECH, S.A., priority 2022, published 2025)
Counter-ions that a name gives are not always drawn.

Tests used:
utrophin-A expression = assay: Utrophin upregulation in mdx^5cv myotubes (qRT-PCR for utrophin-A expression); assay type: cell-based; conditions: Mus musculus, Myotube, 72 h, 3 days, RT-PCR, read-out: Utrophin upregulation (average of fold change utrophin vs DMSO ± sem)
Protocol: Isolation of satellite cell-derived primary myoblasts was performed via cell-surface antibodies and magnetic separation as previously described, and cultured for their expansion (Motohashi et al., J Vis Exp. 2014 Apr. 8; (86): 50846). Briefly, after collagenase (Worthington, CLS-2) treatment, dissociated cells from mdx^5cv mouse hindlimb muscle were incubated with anti-CD31 monoclonal antibody conjugated to phycoerythrin (eBioscience, 12-0311), anti-CD45 monoclonal antibody conjugated to phycoerythrin (eBioscience, 30-F11), anti-Scal monoclonal antibody conjugated to phycoerythrin (eBioscience, Dec-81) and anti-Integrin a7 (MBL International, ABIN487462), followed by anti-PE microbeads (Miltenyi Biotec, 130-048-801), and then performed LD column (Miltenyi Biotec, 130-042-901) separation. Negative cell populations were incubated with anti-Mouse IgG beads (Miltenyi Biotec, 130-048-402), and then MS column (Miltenyi Biotec, 130-042-201) separation was performed to isolate Integrin a7 (+) satellite cells. Satellite cell-derived mdx^5cv myoblasts were maintained in culture on collagen coated plates in myoblast medium containing 20% FBS and 20 ng/ml bFGF (Invitrogen, PHG0263) in HAM's-F10 medium. Cell cultures were maintained in a humidified incubator at 37° C. with 5% CO2 and 5% 02. The mdx^5cv myoblasts were induced to differentiate into multinucleated myotubes after low serum conditions (DMEM supplemented with 5% horse serum).
Halofuginone was obtained from Selleck. Veliflapon and cloricromen HCl were obtained from Sigma. Fabomotizole HCl was obtained from MedChemExpress. Difenpiramide was obtained from Enamine. Amopyroquine and alpelisib were obtained from Carbosynth. Benorilate and xipamide were obtained from Fluorochem. Altizide was obtained from Toronto Research Chemicals. All chemical compounds were dissolved with 100% DMSO to adjust to 10 mM stock solutions.
Every day compounds were added to mdx^5cv myotubes at different concentrations (0.01 to 10 μM) by replacement of the differentiation medium. After 3 days compound exposure, cells were harvested for RNA preparation by TRIzol reagent (15596026, ThermoFisher Scientific). Isolated RNA was used for cDNA synthesis using the Transcriptor First Strand cDNA synthesis kit (04379012001, Roche Molecular Diagnostics) using random primers. Diluted DMSO solution was used as a negative control vehicle. qRT-PCR assay for utrophin-A expression was performed using the following primers: Utro-F1 (Forward) 5′-[…]-3′ (SEQ ID NO: 1) and Utro-R1 (Reverse) 5′-[…]-3′ (SEQ ID NO: 2). 18S rRNA was used as an internal control, with the following primers: 18S-F1 (Forward) 5′-[…]-3′ (SEQ ID NO: 3) and 18S-R1 (Reverse) 5′-[…]-3′ (SEQ ID NO: 4). qPCR was performed using GoTaq qPCR Master Mix (A6001, Promega). All primers were synthesized as custom DNA oligos from Integrated DNA technologies (IDT). Analysis was done using the ACt method. Statistical analysis was performed with at least three independent experiments with between 2 and 4 replicates in each experiment.
The chemical compounds were tested in mdx^5cv myotubes at different concentrations for 3 days. Halofuginone was used as a positive control for the utrophin up-regulation.

[1] = test system: DMD patient-derived 3D skeletal muscle tissues; assay: Force of muscle contraction in response to electrical pulse stimulation in human 3D skeletal muscle tissues; assay type: cell-based; conditions: 10 μM; for tetanic index (maximal tetanic specific force / maximal twitch specific force): 2 days (FIG. 3); for maximal twitch contractile force in response to electrical stimulation / tetanic contractile force in response to electrical stimulation: 2 days; for maximal twitch contractile force in response to electrical stimulation: 1 Hz EPS, compared with DMSO treated cells (FIG. 1); for tetanic contractile force in response to electrical stimulation: 50 Hz EPS, compared with DMSO treated cells (FIG. 2)
Protocol: Fabrication of Human 3D Skeletal Muscle Tissues and Treatment Human 3D skeletal muscle tissues were fabricated using polydimethylsiloxane (PDMS; Sylgard 184 silicone elastomer kit, Dow Corning) casting molds developed and fabricated as described in Fernández-Costa et al. 2022. Briefly, the casting molds design consists of a square-shaped pool, where the cells/hydrogel solution is seeded, and two vertical, flexible PDMS pillars. PDMS casting molds were prepared for muscle cell culture by first cleaning them by sonication on water with soap, 2-propanol, and Mili-Q water and sterilized with UV light for 15 min. It was followed by 1 h treatment with 1% Plurionic® F-127 (Sigma-Aldrich) solution in cold PBS (100 μl/well) at 4° C. Human 3D skeletal muscle tissues were generated using Immortalized human muscle satellite cells (iHuMSCs) from a DMD patient (DMD 2, clone G82) (Massenet et al. 2020). iHuMSCs were cultured in growth medium (skeletal muscle basal medium (PromoCell GmbH), skeletal muscle supplemental mix (PromoCell GmbH), 10% Fetal Bovine Serum (FBS) (Gibco™), 100 U/mL penicillin and 100 μg/ml streptomycin (Gibco™)). iHuMSCs were released from culture flasks via mild trypsinization. Cells were encapsulated at 2.5×10^7 cells/ml in a cell/hydrogel mixture of 30% v/v Corning® Matrigel® Growth Factor Reduced (GFR) Basement Membrane Matrix (Corning®), 2 units of thrombin from human plasma (Sigma-Aldrich) and 4 mg/mL of fibrinogen from human plasma (50% v/v) (Sigma-Aldrich). 35 μl was pipetted within each PDMS casting mold using cool tips to avoid premature polymerization.
The cell/hydrogel mixture was polymerized for 30 min at 37° C. followed by incubation in growth medium containing 1 mg/mL of 6-aminocaproic acid (ACA) (Sigma-Aldrich). ACA works as an antifibrinolytic, which avoids fibrin depolymerization. They were kept in growth media for two days and then switched to differentiation medium (Dulbecco's Modified Eagle Medium, high glucose, GlutaMAX™ Supplement (Gibco™), containing 1% KnockOut™ Serum replacement (Gibco™), 1% Insulin-Transferrin-Selenium-Ethanolamine (Gibco™) and 1% Penicillin-Streptomycin-Glutamine (Gibco™)) containing 1 mg/mL of ACA for seven days. Half of the volume of differentiation medium was replaced every two days. After five days of differentiation, the medium was replaced by differentiation medium with the drugs at 10 μM and 0.01% DMSO final concentration. The treatment was kept for 48 hours.
Human 3D skeletal muscle tissues were electrically stimulated after seven days of differentiation to induce muscle contraction. A custom-made device consisted of a 12-well plate with two graphite electrodes per well located on the lid was used to perform the EPS. PDMS casting molds were placed on a 12-well plate with fresh differentiation medium. The plate was placed on a Zeiss Axio Observer Z1/7 outfitted with the XL S1 cell incubator at 37° C. and 5% CO2. The device was connected to a pulse generator (Multifunction Generator WF1974, NF Corporation), and tissues were stimulated with electrical square-wave pulses of 1 V/mm, 1 ms of pulse width, and frequencies varying from 1 to 50 Hz. The contractibility in response of EPS of 1 Hz of frequency was evaluated to study twitch contraction dynamics. On the other hand, 50 Hz of frequency was applied to induce tetanic contractions.
Videos of the movement of the pillar of the casting molds in response to the muscle contractions were taken with a ZEISS Axio Observer Z1/7 microscope. Cross-sectional area and location of the tissues on the axis of the pillars were also recorded during the assay. Videos were analyzed using a custom-made Python script and the specific force performed from the tissues was calculated applying […] together with the calculated displacement of the pillar as done in Mestre et al. 2018. Tetanic index was calculated as the ratio between the maximal tetanic specific force divided by the maximal twitch specific force. […]

| SMILES | fold induction at 0.1 µM (utrophin-A expression) | fold induction at 1 µM (utrophin-A expression) | fold induction at 10 µM (utrophin-A expression) | tetanic index (maximal tetanic specific force / maximal twitch specific force) [1] | maximal twitch contractile force in response to electrical stimulation [1] | tetanic contractile force in response to electrical stimulation [1] |
| --- | --- | --- | --- | --- | --- | --- |
| Cc1nc(NC(=O)N2CCC[C@H]2C(N)=O)sc1-c1ccnc(C(C)(C)C(F)(F)F)c1 [Alpelisib] | 1.08 ± 0.09 | 1.45 ± 0.11 | 1.4 ± 0.13 | – | – | – |
| C=CCSCC1Nc2cc(Cl)c(S(N)(=O)=O)cc2S(=O)(=O)N1 (stereo not drawn) [Altizide] | 1.09 ± 0.07 | 1.33 ± 0.09 | 1.33 ± 0.09 | – | – | – |
| Oc1ccc(Nc2ccnc3cc(Cl)ccc23)cc1CN1CCCC1 [Amopyroquine] | 1.23 ± 0.11 | 1.1 ± 0.14 | 1.23 ± 0.37 | – | – | – |
| CC(=O)Nc1ccc(OC(=O)c2ccccc2OC(C)=O)cc1 [Benorilate] | 1.16 ± 0.12 | 1.04 ± 0.16 | 1.58 ± 0.29 | – | – | – |
| CCOC(=O)COc1ccc2c(C)c(CCN(CC)CC)c(=O)oc2c1Cl [Cloricromen hydrochloride, Cloricromen] | 1.06 ± 0.19 | 1.07 ± 0.22 | 1.34 ± 0.13 | – | – | – |
| O=C(Cc1ccc(-c2ccccc2)cc1)Nc1ccccn1 [Difenpiramide] | 1.24 ± 0.13 | 1.1 ± 0.21 | 1.23 ± 0.21 | significant increase | increase | increase |
| CCOc1ccc2[nH]c(SCCN3CCOCC3)nc2c1 [Fabomotizole hydrochloride, Fabomotizole] | 1.34 ± 0.07 | 1.04 ± 0.1 | 1.34 ± 0.19 | – | – | – |
| O=C(CC1NCCCC1O)Cn1cnc2cc(Br)c(Cl)cc2c1=O (stereo not drawn) [Halofuginone] | 1.44 ± 0.37 | 1.24 ± 0.1 | 1.3 ± 0.04 | – | – | – |
| O=C(O)[C@@H](c1ccc(OCc2ccc3ccccc3n2)cc1)C1CCCC1 [Veliflapon] | 1.43 ± 0.24 | 1.35 ± 0.02 | 1.05 ± 0.15 | significant increase | increase | increase |
| Cc1cccc(C)c1NC(=O)c1cc(S(N)(=O)=O)c(Cl)cc1O [Xipamide] | 1.25 ± 0.18 | 1.05 ± 0.17 | 1.18 ± 0.1 | – | – | – |
